According to patent EP4707280A1, “1,4-CINEOLE DERIVATIVE AND INTERMEDIATE THEREOF, HERBICIDE CONTAINING SAID DERIVATIVE AS ACTIVE INGREDIENT, METHOD FOR USING HERBICIDE, AND METHOD FOR PREPARING AGROCHEMICAL COMPOSITION” (HOKKO CHEMICAL INDUSTRY CO., LTD., priority 2023, dated 2024):

Experiments:
Format in all cases: in vivo
[1] = system: Echinochloa crus-galli var. formosensis; test: Test Example 1: herbicidal effect test by soil application in paddy rice; settings: Echinochloa crus-galli, soil, 336 h; 120 g active ingredient per 10 ares; applied immediately after sowing, flooded pots; 14 days after application; read-out: weed inhibition rate
Summary of the method: (§1)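 Weeds sown 0–1 cm deep (30 seeds each) into fertilized, puddled paddy soil in Wagner pots. Pots are flooded immediately, water held near 3 cm, and the diluted emulsifiable concentrate is dripped in at once, delivering 120 g active ingredient per 10 ares under glass-greenhouse management.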

Scirpus juncoides [2] = test: as above; settings: Schoenoplectiella juncoides, soil, 336 h; 120 g active ingredient per 10 ares; applied immediately after sowing, flooded pots; 14 days after application; read-out: weed inhibition rate
Summary of the method: as §1

[3] = system: Echinochloa crus-galli var. formosensis; test: Test Example 2: herbicidal effect test by application during growth period of paddy rice; settings: Echinochloa crus-galli; 120 g per 10 ares; applied seven days after sowing, flooded pots; 14 days after application; read-out: weed inhibition rate
Summary of the method: (§2)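 Herbicidal effect was scored 14 days after treatment, in duplicate per concentration. Weeds sown 0–1 cm deep in puddled, fertilized paddy soil under about 3 cm of standing water received a water-diluted emulsifiable concentrate by dropper 7 days post-sowing, at 120 g a.i. per 10 ares.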

Scirpus juncoides [4] = test: as above; settings: Schoenoplectiella juncoides; 120 g per 10 ares; applied seven days after sowing, flooded pots; 14 days after application; read-out: weed inhibition rate
Summary of the method: as §2

Digitaria ciliaris [5] = test: Test Example 3: herbicidal effect test by soil application in upland field; settings: Digitaria ciliaris, 120 g per 10 ares, sprayed one day after sowing, 14 days after application, read-out: weed inhibition rate
Summary of the method: (§3)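 Pre-emergence test: seeds mixed into top 1 cm of alluvial loam upland soil in pots; emulsifiable concentrate diluted in water sprayed on soil one day after sowing at 100 L/10 a, 120 g a.i./10 a. Weed inhibition rate (%) scored at 14 days, in duplicate.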

Echinochloa crus-galli [6] = test: as above; settings: Echinochloa crus-galli, 120 g per 10 ares, sprayed one day after sowing, 14 days after application, read-out: weed inhibition rate
Summary of the method: as §3

Digitaria ciliaris [7] = test: Test Example 4: herbicidal effect test by stem and leaf treatment in upland field; settings: Digitaria ciliaris; 120 g per 10 ares; sprayed seven days after sowing, upland soil; 14 days after application; read-out: weed inhibition rate
Echinochloa crus-galli [8] = test: as above; settings: Echinochloa crus-galli; 120 g per 10 ares; sprayed seven days after sowing, upland soil; 14 days after application; read-out: weed inhibition rate
[9] = system: Echinochloa crus-galli var. formosensis; test: Test Example 5: herbicidal effect test by soil application in paddy rice (low dose); settings: Echinochloa crus-galli, soil, 336 h; 7.5 g per 10 ares; applied immediately after sowing, flooded pots; 14 days after application; read-out: weed inhibition rate
Summary of the method: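 Dose of 7.5 g a.i. per 10 ares, applied by dropper as diluted emulsifiable concentrate to flooded (~3 cm) paddy pots immediately after sowing seeds at 0–1 cm. Kept in a glass greenhouse; duplicate pots rated at 14 days post-application.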

[10] = system: Echinochloa crus-galli var. formosensis; test: Test Example 6: herbicidal effect test by application during growth period of paddy rice (low dose); settings: Echinochloa crus-galli; 7.5 g per 10 ares; applied seven days after sowing, flooded pots; 14 days after application; read-out: weed inhibition rate
Summary of the method: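 Low-dose water application, 7.5 g a.i. per 10 ares, given by dropper into flooded pots (about 3 cm depth) 7 days after sowing of 30 weed seeds each at 0–1 cm. Evaluation of inhibition (%) took place 14 days later, duplicate per rate.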

Digitaria ciliaris [11] = test: Test Example 7: herbicidal effect test by soil application in upland field (low dose); settings: Digitaria ciliaris, 7.5 g per 10 ares, sprayed one day after sowing, 14 days after application, read-out: weed inhibition rate
Method: (§4) The present test was conducted in duplicate for each chemical concentration group, and the weed inhibition rate (%) was determined 14 days after chemical application using the following formula (Math. 1). [formula]
(§5) Pots with an area of 36 cm^2 were filled with upland soil (alluvial loam), twenty seeds each of weeds of Digitaria ciliaris, and Echinochloa crus-galli were uniformly mixed with the top 1 cm layer of soil and the surface was lightly pressed down. One day after sowing, an emulsifiable concentrate prepared according to Formulation Example 5 using the compound shown below was diluted with water, and the diluted solution was sprayed onto the soil surface at a rate of 100 liters per 10 ares. The amount of the active ingredient to be applied was equivalent to 7.5 g per 10 ares. Fourteen days after chemical application, the herbicidal effect was evaluated according to the same criteria as in Test Example 1.

Echinochloa crus-galli [12] = test: as above; settings: Echinochloa crus-galli, 7.5 g per 10 ares, sprayed one day after sowing, 14 days after application, read-out: weed inhibition rate
Method: as §4, §5

Digitaria ciliaris [13] = test: Test Example 8: herbicidal effect test by stem and leaf treatment in upland field (low dose); settings: Digitaria ciliaris; 7.5 g per 10 ares; sprayed seven days after sowing, upland soil; 14 days after application; read-out: weed inhibition rate
Echinochloa crus-galli [14] = test: as above; settings: Echinochloa crus-galli; 7.5 g per 10 ares; sprayed seven days after sowing, upland soil; 14 days after application; read-out: weed inhibition rate

CC(C)[C@]12CC(OCc3ccccc3)[C@](C)(C[C@@H]1Cl)O2 (mixture of isomers) [1-8, (1R,2S,4S,SR)-5-benzyloxy-2-chloro-1-isopropyl-4-methyl-7-oxabicyclo[2.2.1]heptane]
≥ 80%: pest or weed control at 1200 g/ha [1] | pest or weed control at 1200 g/ha (Scirpus juncoides [2]) | inhibition at 1200 g/ha [3] | inhibition at 1200 g/ha (Scirpus juncoides [4]) | inhibition at 1200 g/ha (Digitaria ciliaris [5]) | inhibition at 1200 g/ha (Echinochloa crus-galli [6]) | inhibition at 1200 g/ha (Digitaria ciliaris [7]) | inhibition at 1200 g/ha (Echinochloa crus-galli [8]) | inhibition at 75 g/ha [9] | inhibition at 75 g/ha [10] | inhibition at 75 g/ha (Digitaria ciliaris [11]) | inhibition at 75 g/ha (Echinochloa crus-galli [12]) | inhibition at 75 g/ha (Digitaria ciliaris [13]) | inhibition at 75 g/ha (Echinochloa crus-galli [14])

CC(C)=CCOC1CC2(C(C)C)OC1(C)CC2Br (stereo not shown) [1-1334, 5-bromo-1-methyl-2-(3-methylbut-2-enoxy)-4-isopropyl-7-oxabicyclo[2.2.1]heptane]
≥ 80%: pest or weed control at 1200 g/ha [1] | pest or weed control at 1200 g/ha (Scirpus juncoides [2]) | inhibition at 1200 g/ha [3] | inhibition at 1200 g/ha (Scirpus juncoides [4]) | inhibition at 1200 g/ha (Digitaria ciliaris [5]) | inhibition at 1200 g/ha (Echinochloa crus-galli [6]) | inhibition at 1200 g/ha (Digitaria ciliaris [7]) | inhibition at 1200 g/ha (Echinochloa crus-galli [8]) | inhibition at 75 g/ha [9] | inhibition at 75 g/ha [10] | inhibition at 75 g/ha (Digitaria ciliaris [11]) | inhibition at 75 g/ha (Echinochloa crus-galli [12]) | inhibition at 75 g/ha (Digitaria ciliaris [13]) | inhibition at 75 g/ha (Echinochloa crus-galli [14])

CC(C)C12C=CC(C)(O1)C(OCc1cccs1)C2 (stereo not shown) [3-756, 1-isopropyl-4-methyl-5-(2-thienylmethoxy)-7-oxabicyclo[2.2.1]hept-2-ene]
≥ 80%: pest or weed control at 1200 g/ha [1] | pest or weed control at 1200 g/ha (Scirpus juncoides [2]) | inhibition at 1200 g/ha [3] | inhibition at 1200 g/ha (Scirpus juncoides [4]) | inhibition at 1200 g/ha (Digitaria ciliaris [5]) | inhibition at 1200 g/ha (Echinochloa crus-galli [6]) | inhibition at 1200 g/ha (Digitaria ciliaris [7]) | inhibition at 1200 g/ha (Echinochloa crus-galli [8]) | inhibition at 75 g/ha [9] | inhibition at 75 g/ha [10] | inhibition at 75 g/ha (Digitaria ciliaris [11]) | inhibition at 75 g/ha (Echinochloa crus-galli [12]) | inhibition at 75 g/ha (Digitaria ciliaris [13]) | inhibition at 75 g/ha (Echinochloa crus-galli [14])

CC(C)C12C=CC(C)(O1)C(OCc1ccsc1)C2 (stereo not shown) [3-757, 1-isopropyl-4-methyl-5-(3-thienylmethoxy)-7-oxabicyclo[2.2.1]hept-2-ene]
≥ 80%: pest or weed control at 1200 g/ha [1] | pest or weed control at 1200 g/ha (Scirpus juncoides [2]) | inhibition at 1200 g/ha [3] | inhibition at 1200 g/ha (Scirpus juncoides [4]) | inhibition at 1200 g/ha (Digitaria ciliaris [5]) | inhibition at 1200 g/ha (Echinochloa crus-galli [6]) | inhibition at 1200 g/ha (Digitaria ciliaris [7]) | inhibition at 1200 g/ha (Echinochloa crus-galli [8]) | inhibition at 75 g/ha [9] | inhibition at 75 g/ha [10] | inhibition at 75 g/ha (Digitaria ciliaris [11]) | inhibition at 75 g/ha (Echinochloa crus-galli [12]) | inhibition at 75 g/ha (Digitaria ciliaris [13]) | inhibition at 75 g/ha (Echinochloa crus-galli [14])

CC(C)[C@]12C[C@@H](OCc3c(Cl)cccc3Cl)[C@](C)(C[C@@H]1Cl)O2 [1-652, (1R,2S,4S,5R)-2-chloro-5-[(2,6-dichlorophenyl)methoxy]-1-isopropyl-4-methyl-7-oxabicyclo[2.2.1]heptane]
≥ 80%: pest or weed control at 1200 g/ha [1] | pest or weed control at 1200 g/ha (Scirpus juncoides [2]) | inhibition at 1200 g/ha [3] | inhibition at 1200 g/ha (Scirpus juncoides [4]) | inhibition at 1200 g/ha (Digitaria ciliaris [5]) | inhibition at 1200 g/ha (Echinochloa crus-galli [6]) | inhibition at 1200 g/ha (Digitaria ciliaris [7]) | inhibition at 1200 g/ha (Echinochloa crus-galli [8]) | inhibition at 75 g/ha [9] | inhibition at 75 g/ha [10] | inhibition at 75 g/ha (Digitaria ciliaris [11]) | inhibition at 75 g/ha (Echinochloa crus-galli [12]) | inhibition at 75 g/ha (Digitaria ciliaris [13]) | inhibition at 75 g/ha (Echinochloa crus-galli [14])
